Patent publication US11766430B2, “Methods of using a phenoxypropylamine compound to treat pain” (Minerva Neurosciences, Inc., priority 2018, dated 2023)
Entries after “also recorded” stand apart in the source; their conditions may differ.

Legend:
Assay type in all cases: in vivo, Male Sprague Dawley rats
[1] = test system: paclitaxel-induced peripheral neuropathic pain in rats; test: Reversal of paclitaxel-induced peripheral neuropathic pain, paw withdrawal threshold, chronic administration (Example 6); settings: hydrochloride; for PWT compared to vehicle (in words): days 14, 21 and 28, 2 hours post dosing
Method: (§1) Male Sprague Dawley rats from Envigo were used in the study. Animals were received at approximately 250 g and housed 3 per cage upon arrival. All rats were examined, handled, and weighed prior to initiation of the study to assure adequate health and suitability. During the course of the study, 12/12 light/dark cycles was maintained. The room temperature was be maintained between 20 and 23° C. with a relative humidity maintained around 50%. Chow and water was provided ad libitum for the duration of the study. All testing was performed during the animal's light cycle phase.
(§2) Paclitaxel (2 mg/kg) was purchased from Biolyse Pharma and injected i.p. on four alternate days (day 1, 3, 5 and 7) for a total of 4 injections at a dose volume of 1 mL/kg.
(§3) Gabapentin (100 mg/kg) was dissolved in saline and administered orally at a dose volume of 1 mL/kg. For prevention study, gabapentin was administered on day 14, sixty minutes prior to test. For reversal study, gabapentin was administered once daily for 2 weeks. On test days it was administered 60 minutes prior to test.
Reversal study: MIN-117 (1, 3 and 10 mg/kg) was formulated in 0.5% (w/v) hydroxypropylmethyl cellulose (HPMC) 8°-120 centipoises in water and administered i.p once daily for 2 weeks at a dose volume of 1 mL/kg. On test days, MIN-117 was administered 2 hours prior to test.
(§4) Rats were administered paclitaxel (2 mg/kg) on four alternate days (days 1, 3, 5 and 7). Baseline and post treatment Paw Withdrawal Threshold (PWT) were evaluated using von Frey filaments (Semmes-Weinstein filaments, Stoelting, Wood Dale, Ill., USA) of varying stiffness (0.4, 0.7, 1.2, 2.0, 3.6, 5.5, 8.5, 10, 15, 26 g). Animals were placed on a perforated metallic platform and allowed to acclimate to their surroundings for a minimum of 15 minutes before each test session. Each filament was presented perpendicular to the plantar surface with sufficient force to cause slight buckling against the paw, and then held until a positive response is noted (paw sharply withdrawn). As described by Chaplan et al. 1994, once the threshold was crossed, the 2 responses straddling the threshold are retrospectively designated as the first 2 responses. Four additional responses were measured to stimuli varied sequentially up or down based on the animal's response. The 6 responses in the immediate vicinity of the threshold were used to calculate the 50% g threshold: 50% g threshold=(10^[Xf+k*d])/10000 Xf is the final filament used (in log units). The parameter k is from the Appendix 1 in Chaplan and was determined by the pattern of the von Frey responses (e.g. OXOXOX where ‘O’ indicates no response and ‘X’ denotes a withdrawal). The parameter d is the difference between stimuli which Chaplan used a constant d=0.224. To accommodate for the use of the 10 g and 26 g filaments, the exact difference between stimuli were used.
(§5) PWT was measured according to the Schematics in FIG. 9 (prevention) and FIG. 10 (reversal study).
(§6) Data was analyzed by analysis of variance (ANOVA) followed by post-hoc comparisons where appropriate. An effect will be considered significant if p<0.05. Data was represented as the mean and standard error to the mean (s.e.m). Statistical outliers that fell above or below 2 standard deviations of the mean were identified but not removed from the final analysis.

[2] = test system: paclitaxel-induced peripheral neuropathic pain in rats; test: Prevention of paclitaxel-induced peripheral neuropathic pain, paw withdrawal threshold, chronic administration (Example 6); settings: for PWT compared to vehicle (in words): days 10 and 14
Method: as §1, §2, §3
Prevention study: MIN-117 (10 mg/kg) was formulated in 0.5% (w/v) hydroxypropylmethyl cellulose (HPMC) 8°-120 centipoises in water and was administered i.p once daily for 7 or 14 days at a dose volume of 1 mL/kg. On test days, MIN-117 was administered 2 hours prior to test.
as §4, with “The 6 responses in the immediate vicinity of the threshold were used to calculate the 50% g threshold: 50% g threshold=(10^[Xf+k*d])/10000 Xf is the final filament used (in log units).” left out, “The parameter d is the difference between stimuli which Chaplan used a constant d=0.224. To accommodate for the use of the 10 g and 26 g filaments, the exact difference between stimuli were used.” left out
as §5
Data was analyzed by analysis of variance (ANOVA) followed by post-hoc comparisons where appropriate. […]

[3] = Body weight, prevention study (Example 6); settings: 10 mg/kg i.p. once daily for 7 or 14 days; effect seen from day 2 until day 11
Method: Body weight (BW) was measured daily during treatment and twice a week after cessation of dosing.
as §6

[4] = Body weight during the chemotherapy induced neuropathic pain study (Example 5); settings: paclitaxel days 1, 3, 5, 7; test compound on day 14; repeated measures ANOVA
Method: as §1, with “(from Envigo, Ind., USA)” for “from Envigo”, “12 h/12 h” for “12/12”, “phase. Every effort was made to minimize suffering of animals. Rats with baseline PWT less than 12 g were not included in the study. Rats were balanced by body weight and by their pre-paclitaxel PWT values. ANOVA found no significant differences between the treatment groups.” for “phase.”

## Cc1nnc(-c2cc3c(OC[C@@H](O)CN4CCC(c5ccc(Cl)c(Cl)c5)CC4)cccc3o2)o1.Cl [MIN-117, (2S)-1-(4-(3,4-dichlorophenyl)piperidin-1-yl)-3-((2-(5-methyl-1,3,4-oxadiazol-2-yl)benzofuran-4-yl)oxy)propan-2-ol hydrochloride]
[1]; 1 mg/kg i.p. once daily for 2 weeks
  PWT compared to vehicle (in words): significant increase in PWT; also recorded: significantly higher PWT
[1]; 3 mg/kg i.p. once daily for 2 weeks
  PWT compared to vehicle (in words): significant increase in PWT; also recorded: significantly higher PWT
[1]; 10 mg/kg i.p. once daily for 2 weeks
  PWT compared to vehicle (in words): significant increase in PWT; also recorded: significantly higher PWT
[1]; 1, 3 and 10 mg/kg i.p., day 35, one week after cessation of treatment
  PWT after cessation of treatment (in words): no analgesic effects; also recorded: returned to vehicle levels
[2]; 10 mg/kg i.p. for 7 or 14 days, day 21, one week or two weeks after cessation of treatment, hydrochloride
  PWT after cessation of treatment (in words): no analgesic effects; also recorded: returned to vehicle levels
[2]; 10 mg/kg i.p. once daily for one week (7 days) starting one day prior to paclitaxel
  PWT compared to vehicle (in words): significantly higher PWT
[2]; 10 mg/kg i.p. once daily for two weeks (14 days) starting one day prior to paclitaxel, 2 hours post dosing
  PWT compared to vehicle (in words): significantly higher PWT
[3]
  Body weight compared to vehicle (in words): decrease in body weight
[4]
  Body weight during the study, between groups (in words): no significant difference between groups
